Source: ChEMBL document CHEMBL3994650, “New 1,4-dihydro[1,8]naphthyridine derivatives as DNA gyrase inhibitors” (Bioorg Med Chem Lett, 2017)
Values after ≈ are worked out from the molar mass of the structure shown. Active and inactive are the calls of the source. The rule behind the calls is not given here.

Key:
[1] = tested on: Staphylococcus aureus; test: Antibacterial activity against Staphylococcus aureus ATCC 25923 incubated after 24 hrs by resazurin dye based broth microdilution assay; type: functional; conditions: ATCC 25923, 24 h
[2] = tested on: Escherichia coli; test: Antibacterial activity against Escherichia coli ATCC 35218 incubated after 24 hrs by resazurin dye based broth microdilution assay; type: functional; conditions: ATCC 35218, 24 h
[3] = tested on: Escherichia coli; test: Antibacterial activity against Escherichia coli ATCC 25922 incubated after 24 hrs by resazurin dye based broth microdilution assay; type: functional; conditions: ATCC 25922, 24 h
[4] = tested on: Klebsiella pneumoniae; test: Antibacterial activity against Klebsiella pneumoniae ATCC 700603 incubated after 24 hrs by resazurin dye based broth microdilution assay; type: functional; conditions: Klebsiella pneumoniae, 700603, 24 h
[5] = tested on: Enterococcus faecalis; test: Antibacterial activity against Enterococcus faecalis ATCC 29212 incubated after 24 hrs by resazurin dye based broth microdilution assay; type: functional; conditions: ATCC 29212, 24 h
[6] = tested on: Enterococcus faecalis; test: Antibacterial activity against Enterococcus faecalis ATCC 51299 incubated after 24 hrs by resazurin dye based broth microdilution assay; type: functional; conditions: ATCC 51299, 24 h
[7] = tested on: Listeria monocytogenes; test: Antibacterial activity against Listeria monocytogenes ATCC 7644 incubated after 24 hrs by resazurin dye based broth microdilution assay; type: functional; conditions: ATCC 7644, 24 h
[8] = tested on: Pseudomonas aeruginosa; test: Antibacterial activity against Pseudomonas aeruginosa ATCC 27853 incubated after 24 hrs by resazurin dye based broth microdilution assay; type: functional; conditions: ATCC 27853, 24 h
[9] = tested on: Escherichia coli ATCC 25922; test: Inhibition of Escherichia coli DNA gyrase assessed as inhibition of enzyme-mediated supercoiling of relaxed pHOT1 DNA substrate at […] to […] ug/ml after 30 mins by gel electrophoresis method
[10] = tested on: Staphylococcus aureus; test: Antibacterial activity against Staphylococcus aureus ATCC 25923 assessed as decrease in ATP level at […] ug/ml after 24 hrs by BacTiter-Glo reagent based bioluminescence assay; type: functional
[11] = tested on: NIH3T3; test: Cytotoxicity against mouse NIH/3T3 cells assessed as reduction in cell proliferation after 24 hrs by MTT assay; type: cell-based; conditions: NIH3T3, 24 h

Compound | MIC90 [1] [µg/mL] | MIC90 [2] [µg/mL] | MIC90 [3] [µg/mL] | MIC90 [4] [µg/mL] | MIC90 [5] [µg/mL] | MIC90 [6] [µg/mL] | MIC90 [7] [µg/mL] | MIC90 [8] [µg/mL] | inhibition [9] | Activity [10] | IC50 [11] [µg/mL]
O=C(O)c1cn(-c2ccc(F)cc2F)c2nc(Sc3nc4ccccc4s3)c(F)cc2c1=O | 15.6 (≈ 32.1 µM) | 31.2 (≈ 64.4 µM) | 31.2 (≈ 64.4 µM) | 31.2 (≈ 64.4 µM) | 31.2 (≈ 64.4 µM) | 62.5 (≈ 129 µM) | 31.2 (≈ 64.4 µM) | 31.2 (≈ 64.4 µM) |  |  | 
CCOC(=O)c1cn(-c2ccc(F)cc2F)c2nc(Sc3nc4cc(C)ccc4[nH]3)c(F)cc2c1=O | 62.5 (≈ 122 µM) | 250 (≈ 490 µM) | 125 (≈ 245 µM) | 125 (≈ 245 µM) | 125 (≈ 245 µM) | 250 (≈ 490 µM) | 125 (≈ 245 µM) | 62.5 (≈ 122 µM) |  |  | 
CCOC(=O)c1cn(-c2ccc(F)cc2F)c2nc(Sc3nc4ccccc4[nH]3)c(F)cc2c1=O | 125 (≈ 252 µM) | 125 (≈ 252 µM) | 62.5 (≈ 126 µM) | 125 (≈ 252 µM) | 125 (≈ 252 µM) | 62.5 (≈ 126 µM) | 125 (≈ 252 µM) | 125 (≈ 252 µM) |  |  | 
CCOC(=O)c1cn(-c2ccc(F)cc2F)c2nc(Sc3nc4cc(Cl)ccc4[nH]3)c(F)cc2c1=O | 62.5 (≈ 118 µM) | 125 (≈ 235 µM) | 62.5 (≈ 118 µM) | 125 (≈ 235 µM) | 125 (≈ 235 µM) | 125 (≈ 235 µM) | 62.5 (≈ 118 µM) | 125 (≈ 235 µM) |  |  | 
CCOC(=O)c1cn(-c2ccc(F)cc2F)c2nc(N3CCN(CCCN(C)C)CC3)c(F)cc2c1=O | 62.5 (≈ 121 µM) | 125 (≈ 242 µM) | 125 (≈ 242 µM) | 250 (≈ 483 µM) | 125 (≈ 242 µM) | 62.5 (≈ 121 µM) | 125 (≈ 242 µM) | 125 (≈ 242 µM) |  |  | 
CCOC(=O)c1cn(-c2ccc(F)cc2F)c2nc(Sc3nc4ccccc4s3)c(F)cc2c1=O | 62.5 (≈ 122 µM) | 125 (≈ 243 µM) | 125 (≈ 243 µM) | 125 (≈ 243 µM) | 125 (≈ 243 µM) | 125 (≈ 243 µM) | 125 (≈ 243 µM) | 125 (≈ 243 µM) |  |  | 
CCOC(=O)c1cn(-c2ccc(F)cc2F)c2nc(Sc3nc4cc([N+](=O)[O-])ccc4[nH]3)c(F)cc2c1=O | 125 (≈ 231 µM) | 125 (≈ 231 µM) | 250 (≈ 462 µM) | 125 (≈ 231 µM) | 250 (≈ 462 µM) | 250 (≈ 462 µM) | 125 (≈ 231 µM) | 125 (≈ 231 µM) |  |  | 

Stronger by MIC90 [1], values ahead:

MIC90 [1] [µg/mL] | MIC90 [2] [µg/mL] | MIC90 [3] [µg/mL] | MIC90 [4] [µg/mL] | MIC90 [5] [µg/mL] | MIC90 [6] [µg/mL] | MIC90 [7] [µg/mL] | MIC90 [8] [µg/mL] | inhibition [9] | Compound | Activity [10] | IC50 [11] [µg/mL]
3.9 (≈ 8.08 µM) | 3.9 (≈ 8.08 µM) | 7.8 (≈ 16.2 µM) | 31.2 (≈ 64.8 µM) | 31.2 (≈ 64.8 µM) | 31.2 (≈ 64.8 µM) | 31.2 (≈ 64.8 µM) | 15.6 (≈ 32.3 µM) |  | Cc1ccc2[nH]c(Sc3nc4c(cc3F)c(=O)c(C(=O)O)cn4-c3ccc(F)cc3F)nc2c1 |  | 
≤ 1.95 | ≤ 1.95 | ≤ 1.95 | ≤ 1.95 | ≤ 1.95 | ≤ 1.95 | ≤ 1.95 | ≤ 1.95 | Active | N[C@@H]1[C@H]2CN(c3nc4c(cc3F)c(=O)c(C(=O)O)cn4-c3ccc(F)cc3F)C[C@@H]12 [TROVAFLOXACIN] | Active | 244 (≈ 587 µM)
≤ 1.95 | ≤ 1.95 | ≤ 1.95 | ≤ 1.95 | ≤ 1.95 | ≤ 1.95 | 3.9 (≈ 11.8 µM) | ≤ 1.95 |  | O=C(O)c1cn(C2CC2)c2cc(N3CCNCC3)c(F)cc2c1=O [CIPROFLOXACIN] | Active | 306 (≈ 923 µM)
≤ 1.95 | ≤ 1.95 | ≤ 1.95 | 3.9 (≈ 9.72 µM) | ≤ 1.95 | ≤ 1.95 | 3.9 (≈ 9.72 µM) | 3.9 (≈ 9.72 µM) | Active | COc1c(N2C[C@@H]3CCCN[C@@H]3C2)c(F)cc2c(=O)c(C(=O)O)cn(C3CC3)c12 [MOXIFLOXACIN] |  | 380 (≈ 946 µM)
7.8 (≈ 15.5 µM) | 15.6 (≈ 31 µM) | 15.6 (≈ 31 µM) | 31.2 (≈ 62.1 µM) | 31.2 (≈ 62.1 µM) | 31.2 (≈ 62.1 µM) | 15.6 (≈ 31 µM) | 31.2 (≈ 62.1 µM) |  | O=C(O)c1cn(-c2ccc(F)cc2F)c2nc(Sc3nc4cc(Cl)ccc4[nH]3)c(F)cc2c1=O |  | 
7.8 (≈ 16.7 µM) | 15.6 (≈ 33.3 µM) | 15.6 (≈ 33.3 µM) | 31.2 (≈ 66.7 µM) | 15.6 (≈ 33.3 µM) | 31.2 (≈ 66.7 µM) | 31.2 (≈ 66.7 µM) | 31.2 (≈ 66.7 µM) |  | O=C(O)c1cn(-c2ccc(F)cc2F)c2nc(Sc3nc4ccccc4[nH]3)c(F)cc2c1=O |  | 
